Results published in the supplement of paper PMC10307832.

compound: Cc1ccc2nc(NCCN)c3ncc(C)n3c2c1 + Cc1cc(Nc2cc(N3CCN(C)CC3)nc(Sc3ccc(NC(=O)C4CC4)cc3)n2)n[nH]1 [Tozasertib] (partner 0.1 µM); experiment: relative viability (nuclei count vs DMSO), 5 days (fraction); higher = more cells survive; details: first compound 0.04 µM
Procedure, shortened: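 For relative viability, nuclei counts in treated wells were divided by those in vehicle wells. Lung cancer cell lines had been pin-tool dosed in 1536-well plates the day after seeding and cultured for 5 days, then fixed and stained in one step (final 0.05% Triton X-100, 1% formaldehyde, 1 ug/ml Hoechst) and imaged at 4×. Doses were one drug alone or a fixed anchor-drug dose plus five library-drug doses (not always all listed) in √10 steps, and values are duplicate-plate medians.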

Cell Line	relative viability
LK-2	0.171
NCI-H2087	0.282
NCI-H358	0.11
NCI-H2170	0.755
H3255	0.703
LOU-NH91	0.654
NCI-H1793	0.603
NCI-H2405	0.731
HOP-62	0.383
LU99A	0.308
BEN	0.501
HARA	0.77
HCC-78	0.4
NCI-H322M	0.553
LCLC-97TM1	0.201
A-427	0.229
NCI-H441	0.605

Cell Line	relative viability
NCI-H1734	0.275
NCI-H460	0.453
NCI-H2347	0.801
NCI-H1395	0.754
201T	0.985
NCI-H1915	0.481
HCC-827	0.465
LXF-289	0.186
NCI-H23	0.707
NCI-H647	0.246
CAL-12T	0.288
NCI-H1651	0.625
EPLC-272H	0.249
NCI-H1355	0.565
NCI-H3122	0.436
NCI-H1437	0.412

same assay, conditions: first compound 0.1265 µM

Cell Line	relative viability
LK-2	0.174
NCI-H2087	0.222
NCI-H358	0.134
NCI-H2170	0.625
H3255	0.55
LOU-NH91	0.628
NCI-H1793	0.375
NCI-H2405	0.723
HOP-62	0.379
LU99A	0.292
BEN	0.436
HARA	0.156
HCC-78	0.375
NCI-H322M	0.452
LCLC-97TM1	0.215
A-427	0.21
NCI-H441	0.631

Cell Line	relative viability
NCI-H1734	0.258
NCI-H460	0.481
NCI-H2347	0.58
NCI-H1395	0.763
201T	0.976
NCI-H1915	0.492
HCC-827	0.433
LXF-289	0.192
NCI-H23	0.403
NCI-H647	0.306
CAL-12T	0.353
NCI-H1651	0.71
EPLC-272H	0.33
NCI-H1355	0.517
NCI-H3122	0.391
NCI-H1437	0.399

same assay, conditions: first compound 0.4 µM

Cell Line	relative viability
LK-2	0.152
NCI-H2087	0.288
NCI-H358	0.0909
NCI-H2170	0.694
H3255	0.629
LOU-NH91	0.638
NCI-H1793	0.371
NCI-H2405	0.708
HOP-62	0.396
LU99A	0.248
BEN	0.498
HARA	0.126
HCC-78	0.291
NCI-H322M	0.528
LCLC-97TM1	0.177
A-427	0.185

Cell Line	relative viability
NCI-H441	0.716
NCI-H1734	0.211
NCI-H460	0.603
NCI-H2347	0.509
NCI-H1395	0.661
201T	0.908
HCC-827	0.454
LXF-289	0.163
NCI-H23	0.451
NCI-H647	0.356
CAL-12T	0.376
NCI-H1651	0.652
EPLC-272H	0.348
NCI-H1355	0.611
NCI-H3122	0.412
NCI-H1437	0.39

same assay, conditions: first compound 1.265 µM

Cell Line	relative viability
LK-2	0.154
NCI-H2087	0.204
NCI-H358	0.101
NCI-H2170	0.671
H3255	0.477
LOU-NH91	0.626
NCI-H1793	0.32
NCI-H2405	0.639
HOP-62	0.367
LU99A	0.298
BEN	0.469
HARA	0.107
HCC-78	0.403
NCI-H322M	0.547
LCLC-97TM1	0.218
A-427	0.212
NCI-H441	0.625

Cell Line	relative viability
NCI-H1734	0.237
NCI-H460	0.312
NCI-H2347	0.519
NCI-H1395	0.655
201T	0.971
NCI-H1915	0.432
HCC-827	0.459
LXF-289	0.178
NCI-H23	0.301
NCI-H647	0.281
CAL-12T	0.291
NCI-H1651	0.677
EPLC-272H	0.237
NCI-H1355	0.546
NCI-H3122	0.352
NCI-H1437	0.364

same assay, conditions: first compound 4 µM

Cell Line	relative viability
LK-2	0.179
NCI-H2087	0.179
NCI-H358	0.098
NCI-H2170	0.679
H3255	0.455
LOU-NH91	0.617
NCI-H1793	0.375
NCI-H2405	0.68
HOP-62	0.402
LU99A	0.263
BEN	0.559
HARA	0.11
HCC-78	0.388
NCI-H322M	0.462
LCLC-97TM1	0.187
A-427	0.196
NCI-H441	0.685

Cell Line	relative viability
NCI-H1734	0.243
NCI-H460	0.386
NCI-H2347	0.437
NCI-H1395	0.795
201T	0.913
NCI-H1915	0.416
HCC-827	0.425
LXF-289	0.212
NCI-H23	0.422
NCI-H647	0.128
CAL-12T	0.269
NCI-H1651	0.718
EPLC-272H	0.251
NCI-H1355	0.553
NCI-H3122	0.293
NCI-H1437	0.368
